Test results published in paper PMC7655065, “Effect of 3-subsitution of quinolinehydroxamic acids on selectivity of histone deacetylase isoforms” (Journal of Enzyme Inhibition and Medicinal Chemistry, 2020).
Like-named read-outs stand apart in the source and are kept apart here.

Legend:
HDAC6 [1] = system: HDAC6; parameters: method as in PMID 29304284; details: printed in Figure 2, previously synthesised compound; cited from earlier work
HDAC1 = biological target: T1, HDAC1 (Homo sapiens, UniProt Q13547); assay: HDAC biochemical assay (Fluor-de-Lys), HDAC1; details: for Selectivity ratio of HDAC1 over HDAC6: IC50 HDAC1 / IC50 HDAC6; for IC50: human recombinant HDAC1, values > 10 μM estimated from best curve fitting
T1 construct: EurofinPanlabs (Taipei, Taiwan)
T1 sequence (Q13547 whole entry): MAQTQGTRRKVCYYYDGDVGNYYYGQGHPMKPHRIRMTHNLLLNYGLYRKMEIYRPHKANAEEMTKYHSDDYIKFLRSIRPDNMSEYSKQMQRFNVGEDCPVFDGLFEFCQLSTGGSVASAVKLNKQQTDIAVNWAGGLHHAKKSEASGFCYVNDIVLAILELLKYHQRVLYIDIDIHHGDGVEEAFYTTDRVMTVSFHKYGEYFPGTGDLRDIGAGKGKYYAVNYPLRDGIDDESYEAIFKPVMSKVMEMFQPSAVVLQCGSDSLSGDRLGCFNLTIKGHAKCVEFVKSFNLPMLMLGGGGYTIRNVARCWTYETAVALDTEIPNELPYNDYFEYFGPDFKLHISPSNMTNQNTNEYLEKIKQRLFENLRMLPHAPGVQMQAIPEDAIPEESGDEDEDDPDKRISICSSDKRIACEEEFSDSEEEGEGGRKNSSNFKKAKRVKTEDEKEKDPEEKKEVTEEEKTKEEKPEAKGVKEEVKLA

HCT116 cells [2] = assay: Sulforhodamine B antiproliferative assay, HCT116; assay type: cell-based; details: Homo sapiens, HCT-116, SRB, 48 h, values > 10 μM estimated from best curve fitting
Protocol: (§1) All human cancer cells were maintained in RPMI 1640 medium supplemented with 10% FBS and penicillin (100 units/ml)/streptomycin (100 µg/ml)/amphotericin B (0.25 µg/ml). All cells were maintained in humidified air containing 5% CO2 at 37 °C and cultured every 2–3 days. […]
(§2) Cells were seeded at the density of 5000 cells/well into 96-plate overnight. Basal cells were fixed with 10% trichloroacetic acid (TCA) to represent the cell population at the time of compound addition (T0). After additional incubation of DMSO (C) or different doses of test compounds (Tx) for 48 h, cells were fixed with 10% TCA and stained with SRB at 0.4% (w/v) in 1% AcOH. Unbound SRB was washed out using 1% AcOH and SRB bound cells were solubilised with 10 mM Trizma base. The absorbance was read at a wavelength of 515 nm. The 50% growth inhibition (GI50) was calculated by 100 − [(Tx – T0)/(C – T0)] × 100.

HDAC6 [3] = biological target: T2, HDAC6 (Homo sapiens, UniProt Q9UBN7); assay: HDAC biochemical assay (Fluor-de-Lys), HDAC6; details: human recombinant HDAC6
T2 construct: EurofinPanlabs (Taipei, Taiwan)
T2 sequence (Q9UBN7 1-1215): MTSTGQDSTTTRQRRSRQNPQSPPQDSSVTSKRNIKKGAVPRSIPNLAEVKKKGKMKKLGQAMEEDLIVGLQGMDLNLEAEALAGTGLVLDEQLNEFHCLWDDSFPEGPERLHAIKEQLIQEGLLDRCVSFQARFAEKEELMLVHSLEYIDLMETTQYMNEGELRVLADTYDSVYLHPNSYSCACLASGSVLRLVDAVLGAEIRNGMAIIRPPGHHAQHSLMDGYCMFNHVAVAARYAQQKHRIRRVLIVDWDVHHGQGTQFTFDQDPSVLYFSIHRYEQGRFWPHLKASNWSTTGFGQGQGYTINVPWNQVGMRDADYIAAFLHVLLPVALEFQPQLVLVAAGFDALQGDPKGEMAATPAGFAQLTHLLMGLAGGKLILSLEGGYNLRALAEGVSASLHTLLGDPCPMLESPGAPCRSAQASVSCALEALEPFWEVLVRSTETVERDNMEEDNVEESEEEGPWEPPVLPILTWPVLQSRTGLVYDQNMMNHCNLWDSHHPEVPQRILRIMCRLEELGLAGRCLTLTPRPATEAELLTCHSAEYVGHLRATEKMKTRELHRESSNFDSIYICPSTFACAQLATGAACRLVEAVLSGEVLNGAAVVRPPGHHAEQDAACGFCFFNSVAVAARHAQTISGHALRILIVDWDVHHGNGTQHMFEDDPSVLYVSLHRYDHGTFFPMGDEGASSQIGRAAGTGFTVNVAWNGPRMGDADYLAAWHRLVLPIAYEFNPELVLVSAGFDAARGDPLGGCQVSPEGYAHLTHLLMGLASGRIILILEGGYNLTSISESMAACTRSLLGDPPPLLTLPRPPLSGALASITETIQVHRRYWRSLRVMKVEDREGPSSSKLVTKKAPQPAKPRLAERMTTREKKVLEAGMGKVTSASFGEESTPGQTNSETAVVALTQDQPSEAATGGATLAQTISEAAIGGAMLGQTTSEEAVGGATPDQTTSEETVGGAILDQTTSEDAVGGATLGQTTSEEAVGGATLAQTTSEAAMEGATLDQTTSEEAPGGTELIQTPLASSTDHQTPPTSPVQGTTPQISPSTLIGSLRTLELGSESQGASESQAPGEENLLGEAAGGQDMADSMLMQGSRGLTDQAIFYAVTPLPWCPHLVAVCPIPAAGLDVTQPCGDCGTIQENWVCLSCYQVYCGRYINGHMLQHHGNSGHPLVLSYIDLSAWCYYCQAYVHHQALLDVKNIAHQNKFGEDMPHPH

A549 cells [4] = assay: Sulforhodamine B antiproliferative assay, A549; assay type: cell-based; details: Homo sapiens
Protocol: as §1, §2

HDAC8 = biological target: T3, HDAC8 (Homo sapiens, UniProt Q9BY41); assay: HDAC biochemical assay (Fluor-de-Lys), HDAC8; details: for Selectivity ratio of HDAC8 over HDAC6: IC50 HDAC8 / IC50 HDAC6; for IC50: human recombinant HDAC8
T3 construct: EurofinPanlabs (Taipei, Taiwan)
T3 sequence (Q9BY41 1-377): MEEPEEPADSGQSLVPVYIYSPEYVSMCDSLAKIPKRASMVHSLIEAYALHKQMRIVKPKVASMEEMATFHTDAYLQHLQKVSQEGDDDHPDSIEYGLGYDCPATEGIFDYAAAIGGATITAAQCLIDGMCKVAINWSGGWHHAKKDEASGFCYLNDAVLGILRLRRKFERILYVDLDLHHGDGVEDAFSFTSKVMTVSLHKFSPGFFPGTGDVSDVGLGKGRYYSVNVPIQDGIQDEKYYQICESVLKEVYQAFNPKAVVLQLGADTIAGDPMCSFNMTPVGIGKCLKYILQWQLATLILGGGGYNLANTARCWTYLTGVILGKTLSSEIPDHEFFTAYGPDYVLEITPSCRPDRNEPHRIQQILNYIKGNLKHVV

HDAC2 = biological target: T4, HDAC2 (Homo sapiens, UniProt Q92769); assay: HDAC biochemical assay (Fluor-de-Lys), HDAC2; details: for Selectivity ratio of HDAC2 over HDAC6: IC50 HDAC2 / IC50 HDAC6; for IC50: human recombinant HDAC2, dash = no inhibition or activity that could not be fitted to an IC50 curve
T4 construct: EurofinPanlabs (Taipei, Taiwan)
T4 sequence (Q92769 whole entry): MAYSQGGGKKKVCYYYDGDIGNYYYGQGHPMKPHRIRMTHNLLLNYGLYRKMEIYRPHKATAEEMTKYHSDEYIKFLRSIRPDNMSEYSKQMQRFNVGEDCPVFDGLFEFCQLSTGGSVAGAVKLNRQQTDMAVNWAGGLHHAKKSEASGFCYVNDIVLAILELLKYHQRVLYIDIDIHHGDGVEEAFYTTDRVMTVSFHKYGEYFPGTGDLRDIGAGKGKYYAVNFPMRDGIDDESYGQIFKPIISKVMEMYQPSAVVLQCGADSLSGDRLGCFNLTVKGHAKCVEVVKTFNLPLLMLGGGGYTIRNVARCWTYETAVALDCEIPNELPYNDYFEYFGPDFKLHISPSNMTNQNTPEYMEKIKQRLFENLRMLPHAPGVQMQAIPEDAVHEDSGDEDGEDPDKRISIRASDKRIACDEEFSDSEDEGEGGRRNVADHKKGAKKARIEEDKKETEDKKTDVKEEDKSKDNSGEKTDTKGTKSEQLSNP

A549 cells [5] = assay: Flow cytometry cell cycle analysis; assay type: cell-based, human; details: A549 cells, 0.25, 0.5, 10 μM, 48 h, propidium iodide
Protocol: Briefly, A549 cells were starved with EBM-2 medium overnight and were subsequently replenished with EGM-2 medium with or without 17, 25, and 26 (0.25, 0.5, 10 µM) for 48 h. After being trypsinized and fixed in ice-cold 75% MeOH for 1 h at −20 °C, A549 cells were washed with PBS and resuspended in 0.2 ml DNA extraction buffer (0.2 M Na2HPO4, 0.1 M citric acid; pH 7.8) for 30 min. Then the cells were stained with propidium iodide solution (PI; 100 µg/ml RNase, 80 µg/ml propidium iodide, 0.1% Triton X-100) in PBS. FACScan flow cytometry was utilised to determine cell cycle distribution, and data analysis was performed with CellQuest software (BD Biosciences).

A549 cells [6] = assay: Western blot analysis of apoptosis and DNA damage markers; assay type: cell-based, human; details: A549 cells treated for 48 h; 0.25, 5 and 10 µM
Protocol: buffer (20 mMTris-HCl pH 7.5, 150 mM NaCl, 1 mM Na2EDTA, 1 mM EGTA, 1% NP-40, 1% sodium deoxycholate, 0.1% SDS, 2.5 mM β-glycerylphosphate, 1 mM Na4P2O7, 5 mM NaF, 1 mM Na3VO4 and protease inhibitor cocktail from Millipore) on ice for 30 min following by centrifugation at 13000 rpm for 30 min. Protein concentrations were determined and equal amounts of protein were separated by 8–15% sodium dodecyl sulphate-polyacrylamide gel electrophoresis (SDS–PAGE) and transferred to poly(vinylidene difluoride) (PVDF) membranes. Membranes were immunoblotted with specific antibodies overnight at 4 °C and then applied to appropriate horseradish peroxidase-conjugated anti-mouse or anti-rabbit IgG secondary antibodies for 1 h at RT. Signals were detected using an enhanced chemiluminescence (Amersham, Buckinghamshire, UK).

HCT116 cells [7] = system: HCT116 cells; parameters: method as in PMID 27344487; details: reference compounds, read-out: Antiproliferative activity IC50, HCT116; cited from earlier work
A549 cells [8] = system: A549 cells; parameters: method as in PMID 27344487; details: reference compounds, read-out: Antiproliferative activity IC50, A549; cited from earlier work
[9] = A549 cells, SRB, 48 h, values > 10 μM estimated from best curve fitting, read-out: Antiproliferative activity IC50, A549

Selectivity ratio of HDAC1 over HDAC6 (HDAC1)	IC50 (HDAC1) [nM]	IC50 (HCT116 cells [2]) [nM]	IC50 (HDAC6 [3]) [nM]	IC50 (A549 cells [4]; [9]) [nM]	Selectivity ratio of HDAC8 over HDAC6 (HDAC8)	IC50 (HDAC8) [nM]	Selectivity ratio of HDAC2 over HDAC6 (HDAC2)	IC50 (HDAC2) [nM]	Compound	IC50 (A549 cells [8]) [nM]	also measured
									O=C(NO)c1ccc(CNc2cccc3cccnc23)cc1 [Compound 13, N-hydroxy-4-((quinolin-8-ylamino)methyl)benzamide]		IC50 (HDAC6 [1]): 0.29 nM
(273)	5300	4700 ± 380	19.4	4970 ± 60	(355)	6880	(> 515)	> 10000	O=C(NO)c1ccc(CNc2cccc3cc(-c4ccccc4)cnc23)cc1 [Compound 18, N-Hydroxy-4-[(3-phenyl-quinolin-8-ylamino)-methyl]-benzamide]		melting point: 172.7 to 173.2 °C
(596)	5130	2030 ± 460	8.61	2130 ± 130	(273)	2350	(336)	2890	O=C(NO)c1ccc(CNc2cccc3cc(-c4ccncc4)cnc23)cc1 [Compound 26, N-Hydroxy-4-(((3-(pyridin-4-yl)quinolin-8-yl)amino)methyl)benzamide]		Cell cycle distribution, sub G1 population (A549 cells [5]): concentration dependent accumulation of A549 cells in sub G1 phase; IC50 (A549 cells [4]; range over both cell lines (A549 and HCT116) and both compounds, abstract, read-out: IC50 values against A549 and HCT116 cells): 1290 to 2130 nM; Caspase 3, 8, and 9 cleavage (Western blot) (A549 cells [6]): dose dependent increases in caspase 3, 8, and 9 cleavage
									O=C(/C=C/c1cccc(S(=O)(=O)Nc2ccccc2)c1)NO [PXD101, (E)-N-hydroxy-3–(3-(N-phenylsulfamoyl)phenyl)acrylamide]	780 ± 70	IC50 (HCT116 cells [7]): 130 ± 10 nM
									O=C(CCCCCCC(=O)Nc1ccccc1)NO [SAHA, N^1-hydroxy-N^8-phenyloctanediamide]	1020 ± 150	
